Test results from article PMC11964921 (npj Drug Discovery, 2025).
≈ marks a conversion by molar mass, not a printed value. Read-outs that look alike come from different tables or passages of the source.

What was measured:
[1] = test system: M. tuberculosis Erdman; test: MIC determination, agar dilution method; format: cell-based
[2] = test system: membranes from M. smegmatis cytochrome bd knockout strain (ΔcydAB); format: biochemical; settings: read-out: IC50 oxygen consumption
[3] = test system: M. tuberculosis H37Rv-ΔcydAB; test: microbe, parasite or virus in culture; format: cell-based; settings: Mycobacterium tuberculosis; for MIC50: 120 h
[4] = test system: membranes from M. smegmatis wild-type strain MC2155; format: biochemical; settings: read-out: IC50 oxygen consumption
[5] = test system: M. tuberculosis H37Rv Pasteur; test: MIC determination, agar dilution method; format: cell-based
[6] = test system: membranes from M. smegmatis cytochrome bc knockout strain (ΔqcrCAB); format: biochemical
[7] = test system: whole cell M. smegmatis; settings: cited from earlier work
[8] = test system: isolated membranes from M. smegmatis; settings: cited from earlier work
[9] = test system: isolated membranes from M. tuberculosis; settings: cited from earlier work
[10] = test system: cytochrome bd knockout strain of M. smegmatis; settings: cited from earlier work
[11] = test system: M. tuberculosis H37Rv-ΔcydAB; design: species or system mouse (Balb/cBy); settings: mouse, in vivo, 25 mg/kg

## CCc1nc2ccc(Cl)cn2c1C(=O)NCc1ccc(C2CC3(C2)CN(S(=O)(=O)C(F)(F)F)C3)cc1 [JNJ-2901]
[1]; Mycobacterium tuberculosis, Erdman reference strain, read-out: MIC
  MIC: > 16 nM
[1]; Mycobacterium tuberculosis, strain Erdman, read-out: MIC
  MIC: > 8 ng/mL
[1]; strain Erdman
  MIC: >8 ng/mL
[2]
  IC50: 60 ± 26 nM
[3]
  MIC50: 2.5 ± 0.1 nM (≈ 1.35 ng/mL)
[4]
  IC50: 89 ± 54 nM
[5]; Mycobacterium tuberculosis, H37Rv reference strain, read-out: MIC
  MIC: > 16 nM
[5]; Mycobacterium tuberculosis, strain H37Rv Pasteur, <1% of inoculum able to grow, read-out: MIC
  MIC: > 8 ng/mL
[5]; strain H37Rv Pasteur, <1% of inoculum able to grow
  MIC: >8 ng/mL
[6]
  reduction of activity (oxygen consumption): 20%

## CCc1nc2ccc(Cl)cn2c1C(=O)NCc1ccc(N2CCC(c3ccc(OC(F)(F)F)cc3)CC2)cc1 [Q203]
[7]
  MIC: > 50000 nM
[8]
  IC50: ~20 nM
[9]
  IC50: ~20 nM
[3]
  MIC: ~2 nM (≈ 1.11 ng/mL)
  MIC50: 2 ± 0.1 nM (≈ 1.11 ng/mL)
[10]
  MIC: ~ 2.5 μM

## COc1nc2ccc(Br)cc2cc1[C@@H](c1ccccc1)[C@@](O)(CCN(C)C)c1cccc2ccccc12 [bedaquiline, reference compound]
[11]
  reduction in bacterial load (lungs): 4.6 log
